According to patent US9481669B2, “Pladienolide pyridine compounds and methods of use” (Eisai R&D Management Co., Ltd., priority 2014, dated 2016):
Entries after “also recorded” stand apart in the source; their conditions may differ. Like-named read-outs stand apart in the source and are kept apart here.

Legend:
[1] = test system: Panc 05.04 cells (mt SF3B1; Q699H and K700E mutations in SF3B1); assay: Cell viability assay (CellTiter-Glo, 72 hr), Panc 05.04; assay type: cell-based; settings: for GI50 / Emax: Panc 05.04, 72 hr; for Emax: negative value indicates cellular lethality
Method: Cells (WiDr and Panc05.04 obtained from ATCC) were seeded in 96-well plates, with 2000 cells/100 μL/well, and incubated overnight. Spent media was removed, and fresh media containing 9 different concentrations of compound (100 μL/well) were added, with DMSO concentration from compound stock solution adjusted to be 0.1%. Each compound treatment was done in duplicate or triplicate at each concentration.
Another plate with cells seeded was dedicated as a time zero (Tz) plate, to which was added 0.1% DMSO in media (100 μL/well) followed by CellTiter-Glo® reagent (Promega Corporation, Madison, Wis.) (50 μL/well) for ATP measurement as a surrogate of cell viability. Average value from measurement of multiple wells of this plate is used as Tz.
Compound-treated plates were incubated for 72 hr at 37° C. Then, CellTiter-Glo® reagent (50 μL/well) was added and ATP was measured. Average value from measurement of the duplicate or triplicate compound-treated wells is used as Ti, and seeded plates with medium having 0.1% DMSO without compound is used as control growth (C).
Percentage growth inhibition/Percentage viability was calculated as: [(Ti−Tz)/(C−Tz)]×100 for concentrations for which Ti>/=Tz [(Ti−Tz)/Tz]×100 for concentrations for which Ti<Tz. *time zero (Tz), control growth (C), and test growth in the presence of compound (Ti) Percentage growth inhibition/Percentage viability are plotted versus compound concentration to determine Emax.
Growth inhibition of 50% (GI50) was calculated from [(Ti−Tz)/(C−Tz)]×100=50, which is the drug concentration resulting in a 50% reduction in the net increase of ATP in control growth (C) during the compound treatment.
Emax refers to the maximum achievable response to a compound in a tested dose range, with a negative value indicating cellular lethality. A larger negative Emax value indicates greater cellular lethality for a particular compound.

[2] = Mouse pharmacokinetic (PK) study; assay type: in vivo, CD-1 mice; settings: for AUC0-inf/D / BA (%) / AUC(0-inf) / AUC(0-t) / half-life / clearance / Vd / Cmax / Tmax / Cmax/D / bioavailability / AUC: CD-1 mice; for oral bioavailability and pharmacokinetic properties (in words): mouse model, IV and PO dosing; for AUC(0-inf) / AUC(0-t) / half-life / clearance / Vd / Cmax / Tmax / bioavailability / AUC: mouse, plasma; for Vd: read-out: Vss; for AUC: read-out: AUCfinite
Method: (§1) Compound 2 was dosed at 5 mg/kg IV (intravenous) or 10 mg/kg PO (oral administration) to CD-1 mice. Following administration, blood samples were collected at pre-determined time points from five mice via serial bleeding of the tail vein. Blood was collected at 0.083 (0.167 PO only), 0.5, 1, 2, 4, 6, 8, and 24 hours post administration. The blood samples were centrifuged at 5000 RPM for 5 minutes to collect plasma within 30 minutes of blood collection. After extraction, samples were assayed using LCMS. PK parameters were calculated using non-compartmental analysis in WinNonlin v6.3.
as §1, with “Compound 1” for “Compound 2”, “IV” for “IV (intravenous)”, “or 12” for “or 10”, “PO” for “PO (oral administration)”, “bleeding from” for “bleeding of”, “hours post-dose.” for “hours post administration.”
Compound 3 was dosed at 5.964 mg/kg IV or 13.307 mg/kg PO to CD-1 mice. Following administration, blood samples were collected at pre-determined time points from five mice via serial bleeding from the tail vein. Blood was collected at 0.083 (0.167 PO only), 0.5, 1, 2, 4, 6, 8, and 24 hours post-dose. The blood samples were centrifuged at 5000 RPM for 5 minutes to collect plasma within 30 minutes of blood collection. After extraction, samples were assayed using LCMS. PK parameters were calculated using non-compartmental analysis in WinNonlin v6.3.
Compound 4 was dosed at 5 mg/kg IV or 10 mg/kg PO to CD-1 mice. Following administration, blood samples were collected at pre-determined time-points from five mice via serial bleeding from the tail vein. Blood was collected at 0.083 (0.167 PO only), 0.5, 1, 2, 4, 6, 8, and 24 hours post-dose. The blood samples will be centrifuged at 5000 RPM for 5 minutes to collect plasma within 30 minutes of blood collection. After extraction, samples were assayed using LCMS. PK parameters were calculated using non-compartmental analysis in WinNonlin v6.3.

[3] = test system: Nalm-6 SF3B1^K700E isogenic cells (human pre B-cell line) xenograft; assay: Nalm-6 SF3B1^K700E mouse xenograft efficacy model; assay type: in vivo, CB17-SCID mice; settings: orally dosed daily for 14 days (QD×14 PO)
Method: The efficacy of Compound 2 was tested in a mouse xenograft model. Nalm-6 SF3B1^K700E isogenic cells (human pre B-cell line, 10×10^6 cells) were subcutaneously implanted into the flank of female CB17-SCID mice. Mice were treated with Compound 2 (10% ethanol, 5% TWEEN-80, 85% saline) or vehicle control. The animals were orally dosed daily for 14 days (QD×14 PO) at the amounts indicated in FIG. 2 and were monitored until they reached either of the following endpoints: 1) excessive tumor volume measured three times a week (tumor volume calculated by using the ellipsoid formula: (length×width^2)/2); or 2) development of any health problems such as paralysis or excessive body weight loss. All animal studies were carried out according to the H3 Biomedicine Guide for the Care and Use of Laboratory Animals.
The efficacy of Compound 1 was tested in a mouse xenograft model. […] The animals were orally dosed daily for 14 days (QD×14 PO) with 7.5 mg/kg or 10 mg/kg Compound 1 or vehicle and were monitored until they reached either of the following endpoints: 1) excessive tumor volume measured three times a week (tumor volume calculated by using the ellipsoid formula: (length×width^2)/2); or 2) development of any health problems such as paralysis or excessive body weight loss. […]

C/C(=C\C=C\[C@@H](C)c1ccccn1)[C@H]1OC(=O)C[C@H](O)CC[C@@](C)(O)[C@@H](OC(=O)N2CCC(N3CCCCC3)CC2)/C=C/[C@@H]1C [Compound 4, (2S,3 S,6S,7R,10R,E)-7,10-dihydroxy-3,7-dimethyl-12-oxo-2-((R,2E,4E)-6-(pyridin-2-yl)hepta-2,4-dien-2-yl)oxacyclododec-4-en-6-yl[1,4′-bipiperidine]-1′-carboxylate]
GI50 [1]: 11.8 nM | Emax [1]: -86.2% | AUC0-inf/D ([2]; 5 mg/kg IV (Table 7)): 1.325 ug/mL * hr/D | AUC0-inf/D ([2]; 10 mg/kg PO (Table 7)): 0.795 ug/mL * hr/D | BA (%) ([2]; 10 mg/kg PO (Table 7)): 60.024% | oral bioavailability and pharmacokinetic properties (in words) [2]: showed oral bioavailability and favorable pharmacokinetic properties; also recorded: possess oral bioavailability and favorable pharmacokinetic properties | AUC(0-inf) ([2]; 5 mg/kg IV (Table 7)): 6620 ng·h/mL | AUC(0-t) ([2]; 5 mg/kg IV (Table 7)): 6610 ng·h/mL | half-life ([2]; 5 mg/kg IV (Table 7)): 181 min | clearance ([2]; 5 mg/kg IV (Table 7), read-out: CLtot (converted)): 12.6 mL/min/kg | Vd ([2]; 5 mg/kg IV (Table 7)): 1.89 L/kg | AUC(0-inf) ([2]; 10 mg/kg PO (Table 7)): 7950 ng·h/mL | AUC(0-t) ([2]; 10 mg/kg PO (Table 7)): 7910 ng·h/mL | Cmax ([2]; 10 mg/kg PO (Table 7)): 1250 ng/mL | Tmax ([2]; 10 mg/kg PO (Table 7)): 2 h | half-life ([2]; 10 mg/kg PO (Table 7)): 178 min

C/C(=C\C=C\[C@@H](C)c1ccccn1)[C@H]1OC(=O)C[C@H](O)CC[C@@](C)(O)[C@@H](OC(=O)N2CCN(C)CC2)/C=C/[C@@H]1C [Compound 2, (2S,3 S,6S,7R,10R,E)-7,10-dihydroxy-3,7-dimethyl-12-oxo-2-((R,2E,4E)-6-(pyridin-2-yl)hepta-2,4-dien-2-yl)oxacyclododec-4-en-6-yl 4-methylpiperazine-1-carboxylate]
GI50 [1]: 32.7 nM | Emax [1]: -66.1% | AUC0-inf/D ([2]; 5 mg/kg IV): 632.71 ng · h/mL/D | AUC0-inf/D ([2]; 10 mg/kg PO): 254.49 ng · h/mL/D | Cmax/D ([2]; 10 mg/kg PO): 84.07 ng/mL/D | oral bioavailability and pharmacokinetic properties (in words) [2]: shows oral bioavailability and favorable pharmacokinetic properties; also recorded: possess oral bioavailability and favorable pharmacokinetic properties | AUC(0-inf) ([2]; 5 mg/kg IV): 3160 ng·h/mL | AUC(0-t) ([2]; 5 mg/kg IV): 3160 ng·h/mL | half-life ([2]; 5 mg/kg IV): 233 min | clearance ([2]; 5 mg/kg IV, read-out: CL (converted)): 26.3 mL/min/kg | Vd ([2]; 5 mg/kg IV): 2.37 L/kg | AUC(0-inf) ([2]; 10 mg/kg PO): 2540 ng·h/mL | AUC(0-t) ([2]; 10 mg/kg PO): 2510 ng·h/mL | Cmax ([2]; 10 mg/kg PO): 841 ng/mL | Tmax ([2]; 10 mg/kg PO): 1 h | bioavailability ([2]; 10 mg/kg PO): 40.2% | half-life ([2]; 10 mg/kg PO): 242 min | efficacy / tumor growth in xenograft mouse model [3]: efficacious when administered via the oral route and reduced tumor growth

C/C(=C\C=C\[C@@H](C)c1ccccn1)[C@H]1OC(=O)C[C@H](O)CC[C@@](C)(O)[C@@H](OC(=O)N2CCN(C3CCCCCC3)CC2)/C=C/[C@@H]1C [Compound 1, (2S,3S,6S,7R,10R,E)-7,10-dihydroxy-3,7-dimethyl-12-oxo-2-((R,2E,4E)-6-(pyridin-2-yl)hepta-2,4-dien-2-yl)oxacyclododec-4-en-6-yl 4-cycloheptylpiperazine-1-carboxylate]
GI50 [1]: 19.5 nM | Emax [1]: -86.8% | cellular lethality (Emax comparison) ([1]; Panc 05.04 cells): greater cellular lethality than Compound 2 | AUC0-inf/D ([2]; 5 mg/kg IV (Table 5)): 934.15 ng · h/mL/D | AUC0-inf/D ([2]; 12 mg/kg PO): 487.06 ng · h/mL/D | Cmax/D ([2]; 12 mg/kg PO): 141.47 ng/mL/D | oral bioavailability and pharmacokinetic properties (in words) [2]: showed oral bioavailability and favorable pharmacokinetic properties; also recorded: possess oral bioavailability and favorable pharmacokinetic properties | AUC(0-inf) ([2]; 5 mg/kg IV (Table 5)): 4670 ng·h/mL | AUC(0-t) ([2]; 5 mg/kg IV (Table 5)): 4450 ng·h/mL | half-life ([2]; 5 mg/kg IV (Table 5)): 152 min | clearance ([2]; 5 mg/kg IV (Table 5), read-out: CL (converted)): 17.8 mL/min/kg | Vd ([2]; 5 mg/kg IV (Table 5)): 2.1 L/kg | AUC(0-inf) ([2]; 12 mg/kg PO): 6230 ng·h/mL | AUC(0-t) ([2]; 12 mg/kg PO): 6210 ng·h/mL | Cmax ([2]; 12 mg/kg PO): 1810 ng/mL | Tmax ([2]; 12 mg/kg PO): 0.5 h | bioavailability ([2]; 12 mg/kg PO): 52.1% | half-life ([2]; 12 mg/kg PO): 180 min | efficacy / tumor growth in xenograft mouse model [3]: efficacious when administered via the oral route and reduced tumor growth

C/C(=C\C=C\[C@@H](C)c1ccccn1)[C@H]1OC(=O)C[C@H](O)CC[C@@](C)(O)[C@@H](OC(=O)N2CCC(N3CCCCCC3)CC2)/C=C/[C@@H]1C [Compound 3, (2S,3S,6S,7R,10R,E)-7,10-dihydroxy-3,7-dimethyl-12-oxo-2-((R,2E,4E)-6-(pyridin-2-yl)hepta-2,4-dien-2-yl)oxacyclododec-4-en-6-yl 4-(azepan-1-yl)piperidine-1-carboxylate]
GI50 [1]: 20.8 nM | Emax [1]: -90.8% | AUC0-inf/D ([2]; 5.964 mg/kg IV): 1.047 μg/mL * hr/D | AUC0-inf/D ([2]; 13.307 mg/kg PO): 0.615 μg/mL * hr/D | BA (%) ([2]; 13.307 mg/kg PO): 58.758% | oral bioavailability and pharmacokinetic properties (in words) [2]: showed oral bioavailability and favorable pharmacokinetic properties; also recorded: possess oral bioavailability and favorable pharmacokinetic properties | AUC(0-inf) ([2]; 5.964 mg/kg IV): 6240 ng·h/mL | half-life ([2]; 5.964 mg/kg IV): 220 min | AUC ([2]; 5.964 mg/kg IV): 6210 ng·h/mL | clearance ([2]; 5.964 mg/kg IV, read-out: CLtot (converted)): 15.9 mL/min/kg | Vd ([2]; 5.964 mg/kg IV): 2.98 L/kg | AUC(0-inf) ([2]; 13.307 mg/kg PO): 8190 ng·h/mL | Cmax ([2]; 13.307 mg/kg PO): 1570 ng/mL | Tmax ([2]; 13.307 mg/kg PO): 2 h | half-life ([2]; 13.307 mg/kg PO): 199 min | AUC ([2]; 13.307 mg/kg PO): 8140 ng·h/mL
